Target: T1, MEK1 (Homo sapiens, UniProt Q02750)
T1 construct: purchased Millipore 14-420
Test: MEK1 Activation Kinase Assay (Cot1, HTRF)
Format: biochemical
Conditions: activation of GST-MEK1 by Cot1
Description: The kinase Cot1 activates MEK1 by phosphorylating its activation loop. The inhibitory activity of compounds of the present invention on this activation of MEK1 was quantified employing the HTRF assay described in the following paragraphs.
As substrate for the kinase reaction the unactive C-terminally His6-tagged GST-MEK1 fusion protein (Millipore cat. no 14-420) was used.
630 (Sigma), 5 mM β-phospho-glycerol] were added and the mixture was incubated for 10 min at 22° C. to allow pre-binding of the test compounds to the GST-MEK1 before the start of the kinase reaction. Then the kinase reaction was started by the addition of 2 μl of a solution of Cot1 in assay buffer and the resulting mixture was incubated for a reaction time of 20 min at 22° C. The concentration of Cot1 in the assay was adjusted depending of the activity of the enzyme lot and was chosen appropriate to have the assay in the linear range, typical enzyme concentrations were in the range of about 2 ng/μl (final conc. in the 5 μl assay volume). […] The resulting mixture was incubated 2 h at 22° C. to allow the binding of the phosphorylated GST-MEK1 to the anti-GST-XL665 and the Eu-cryptate labelled anti-phospho-MEK 1/2 antibody. Subsequently the amount of Ser217/Ser221-phosphorylated substrate was evaluated by measurement of the resonance energy transfer from the Eu-Cryptate-labelled anti-phospho-MEK antibody to the anti-GST-XL665.

T1 sequence (Q02750 whole entry): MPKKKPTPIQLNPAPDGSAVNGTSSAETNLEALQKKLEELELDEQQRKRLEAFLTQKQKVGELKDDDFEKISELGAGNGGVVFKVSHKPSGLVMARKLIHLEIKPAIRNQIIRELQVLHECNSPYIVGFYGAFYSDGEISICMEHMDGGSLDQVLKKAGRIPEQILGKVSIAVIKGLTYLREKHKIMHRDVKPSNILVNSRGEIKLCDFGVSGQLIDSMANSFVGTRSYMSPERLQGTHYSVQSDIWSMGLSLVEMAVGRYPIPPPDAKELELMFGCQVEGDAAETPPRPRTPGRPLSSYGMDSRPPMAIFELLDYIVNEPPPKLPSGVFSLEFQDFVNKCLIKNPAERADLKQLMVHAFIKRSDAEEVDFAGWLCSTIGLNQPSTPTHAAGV

`CN(C)S(=O)(=O)Nc1cccc(Oc2cc(F)cc(Nc3ccc(I)cc3F)c2C#N)c1` [Example 2.1, N′-[3-[2-cyano-5-fluoro-3-[(2-fluoro-4-iodophenyl)amino]phenoxy]phenyl]-N,N-dimethyl-sulfamide] and `CN(C)S(=O)(=O)Nc1cccc(Oc2cc(F)cc(Nc3ccc(I)cc3F)c2C(N)=O)c1` [Example 3.2, 2-[3-[[(dimethylamino)sulfonyl]amino]phenoxy]-4-fluoro-6-[(2-fluoro-4-iodophenyl)amino]-benzamide] cannot be ordered by IC50: < 1000 nM for the first, < 250 nM for the second.

`NC(=O)c1c(Nc2ccc(I)cc2F)cc(F)cc1OCCCN1CCCC1=O` [Example 3.3, 4-Fluoro-2-(2-fluoro-4-iodo-phenylamino)-6-[3-(2-oxo-pyrrolidin-1-yl)-propoxy]-benzamide] and `CS(=O)(=O)N1CCCCC1CCOc1cc(F)cc(Nc2ccc(I)cc2F)c1C(N)=O` (stereo not shown) [Example 6.22, 4-Fluoro-2-(2-fluoro-4-iodo-phenylamino)-6-[2-(1-methanesulfonyl-piperidin-2-yl)-ethoxy]-benzamide] cannot be ordered by IC50: < 250 nM for the first, < 1000 nM for the second.

`NC(=O)c1c(Nc2ccc(I)cc2F)cc(F)cc1OCCc1cccnc1` [Example 3.5, 4-Fluoro-2-(2-fluoro-4-iodo-phenylamino)-6-(2-pyridin-3-yl-ethoxy)-benzamide] and `NC(=O)c1c(Nc2ccc(I)cc2F)cc(F)cc1Oc1ccccc1` [Example 5.2, 4-Fluoro-2-(2-fluoro-4-iodo-phenylamino)-6-phenoxy-benzamide] cannot be ordered by IC50: < 250 nM for the first, < 250 nM for the second.

`NC(=O)c1c(Nc2ccc(I)cc2F)cc(F)cc1OC[C@H](O)[C@@H](O)CO` [Example 3.8, 4-Fluoro-2-(2-fluoro-4-iodo-phenylamino)-6-((2S,3S)-2,3,4-trihydroxy-butoxy)-benzamide] and `NC[C@H](O)CCOc1cc(F)cc(Nc2ccc(I)cc2F)c1C(N)=O` [Example 10.3, 2-((R)-4-Amino-3-hydroxy-butoxy)-4-fluoro-6-(2-fluoro-4-iodo-phenylamino)-benzamide] cannot be ordered by IC50: < 250 nM for the first, < 250 nM for the second.

`NC(=O)c1c(Nc2ccc(I)cc2F)cc(F)cc1Oc1cccc(N)c1` [Example 4.1, 2-(3-Amino-phenoxy)-4-fluoro-6-(2-fluoro-4-iodo-phenylamino)-benz-amide] and `NC(=O)c1c(Nc2ccc(I)cc2F)cc(F)cc1Oc1cccc(NS(N)(=O)=O)c1` [Example 6.7, 2-[3-[[(amino)sulfonyl]amino]phenoxy]-4-fluoro-6-[(2-fluoro-4-iodophenyl)amino]-benzamide] cannot be ordered by IC50: < 250 nM for the first, < 250 nM for the second.

`NC(=O)c1c(Nc2ccc(I)cc2F)cc(F)cc1OCCC1CCCCN1` (stereo not shown) [Example 4.5, 4-Fluoro-2-(2-fluoro-4-iodo-phenylamino)-6-(2-piperidin-2-yl-ethoxy)-benzamide] and `NC(=O)c1c(Nc2ccc(I)cc2F)cc(F)cc1OCC1CNC1` [Example 4.6, 2-(Azeitidn-3-ylmethoxy)-4-fluoro-6-(2-fluoro-4-iodo-phenylamino)-benzamide] cannot be ordered by IC50: < 250 nM for the first, < 250 nM for the second.

`NC(=O)c1c(Nc2ccc(I)cc2F)cc(F)cc1Oc1ccc2c(c1)S(=O)(=O)CO2` [Example 5.1, 2-(3,3-Dioxo-2,3-dihydro-3λ^6-benzo[1,3]oxathiol-5-yloxy)-4-fluoro-6-(2-fluoro-4-iodo-phenylamino)-benzamide] and `NC(=O)c1c(Nc2ccc(I)cc2F)cc(F)cc1Oc1cccc(N2CCCS2(=O)=O)c1` [Example 6.6, 2-[3-(1,1-Dioxo-1λ^6-isothiazolidin-2-yl)-phenoxy]-4-fluoro-6-(2-fluoro-4-iodo-phenylamino)-benzamide] cannot be ordered by IC50: < 1000 nM for the first, < 250 nM for the second.

`CS(=O)(=O)Nc1cccc(Oc2cc(F)cc(Nc3ccc(I)cc3F)c2C(N)=O)c1` [Example 6.1a, 4-Fluoro-2-(2-fluoro-4-iodo-phenylamino)-6-(3-methanesulfonylamino-phenoxy)-benzamide] and `CCCNS(=O)(=O)Nc1cccc(Oc2cc(F)cc(Nc3ccc(I)cc3F)c2C(N)=O)c1` [Example 6.3, 2-[3-[[(propylamino)sulfonyl]amino]phenoxy]-4-fluoro-6-[(2-fluoro-4-iodophenyl)amino]-benzamide] cannot be ordered by IC50: < 250 nM for the first, < 250 nM for the second.

`NC(=O)c1c(Nc2ccc(I)cc2F)cc(F)cc1OCCCNS(=O)(=O)c1ccccc1` [Example 6.11, 2-(3-Benzene-sulfonylamino-propoxy)-4-fluoro-6-(2-fluoro-4-iodo-phenylamino)-benzamide] and `Cn1cnc(S(=O)(=O)NCCCOc2cc(F)cc(Nc3ccc(I)cc3F)c2C(N)=O)c1` [Example 6.17, 4-Fluoro-2-(2-fluoro-4-iodo-phenylamino)-6-[3-(1-methyl-1H-imidazole-4-sulfonylamino)-propoxy]-benzamide] cannot be ordered by IC50: < 250 nM for the first, < 250 nM for the second.

`CS(=O)(=O)N1CCCC(COc2cc(F)cc(Nc3ccc(I)cc3F)c2C(N)=O)C1` (stereo not shown) [Example 6.15, 4-Fluoro-2-(2-fluoro-4-iodo-phenylamino)-6-(1-methanesulfonyl-piperidin-3-ylmethoxy)-benzamide] and `NC(=O)c1c(Nc2ccc(I)cc2F)cc(F)cc1OCC[C@@H](O)CN1CCOCC1` [Example 10.6, 4-Fluoro-2-(2-fluoro-4-iodo-phenylamino)-6-((R)-3-hydroxy-4-morpholin-4-yl-butoxy)-benzamide] cannot be ordered by IC50: < 1000 nM for the first, < 250 nM for the second.

`CC(C)(O)C(O)CCOc1cc(F)cc(Nc2ccc(I)cc2F)c1C(N)=O` (stereo not shown) [Example 7.1, 2-(3,4-Dihydroxy-4-methyl-pentyloxy)-4-fluoro-6-(2-fluoro-4-iodo-phe-nylamino)-benzamide] and `NC(=O)c1c(Nc2ccc(Br)cc2F)cc(F)cc1OCC[C@@H](O)CO` [Example 8.4, 2-(4-Bromo-2-fluoro-phenylamino)-6-((R)-3,4-dihydroxy-butoxy)-4-fluoro-benzamide] cannot be ordered by IC50: < 250 nM for the first, < 1000 nM for the second.

`NC(=O)c1c(Nc2ccc(I)cc2F)cc(F)cc1O[C@@H]1C[C@@H](O)[C@@H](O)C1` [Example 7.7] and `NC(=O)c1c(Nc2ccc(I)cc2F)cc(Cl)cc1OCC[C@@H](O)CO` [Example 11.3, 4-Chloro-2-((R)-3,4-dihydroxy-butoxy)-6-(2-fluoro-4-iodo-phenylamino)-benzamide] cannot be ordered by IC50: < 250 nM for the first, < 1000 nM for the second.

`NC(=O)c1c(Nc2ccc(I)cc2)cc(F)cc1OCC[C@@H](O)CO` [Example 8.5, 2-((R)-3,4-Dihydroxy-butoxy)-4-fluoro-6-(4-iodo-phenylamino)-benzamide] and `C#Cc1ccc(Nc2cc(F)cc(OCC[C@@H](O)CO)c2C(N)=O)c(F)c1` [Example 9.1, 2-((R)-3,4-Dihydroxy-butoxy)-6-(4-ethynyl-2-fluoro-phenylamino)-4-fluoro-benzamide] cannot be ordered by IC50: < 1000 nM for the first, < 1000 nM for the second.

`C#Cc1ccc(Nc2cc(F)cc(Oc3cccc(NS(=O)(=O)N(C)C)c3)c2C(N)=O)c(F)c1` [Example 9.4, 2-[3-[[(dimethylamino)sulfonyl]amino]phenyoxy]-4-fluoro-6-[(4-ethynyl-2-fluorophenyl)amino]-benzamide] and `C#Cc1ccc(Nc2cc(F)cc(Oc3cccc(NS(=O)(=O)NCCC)c3)c2C(N)=O)c(F)c1` [Example 9.5, 2-[3-[[(propylamino)sulfonyl]amino]phenyoxy]-4-fluoro-6-[(4-ethynyl-2-fluorophenyl)amino]-benzamide] cannot be ordered by IC50: < 250 nM for the first, < 250 nM for the second.

In the case of `CNC(=O)c1c(Nc2ccc(I)cc2F)cc(F)cc1OCC[C@@H](O)CO` [Example 12.8, 2-((R)-3,4-Dihydroxy-butoxy)-4-fluoro-6-(2-fluoro-4-iodo-phenylamino)-N-methyl-benzamide], the IC50 is reported as < 250 nM.

Tested on: colon cancer
Test: not given
Conditions: oral treatment, mouse models, literature [18]; cited from earlier work

For `O=C(NOCC1CC1)c1ccc(F)c(F)c1Nc1ccc(I)cc1Cl` [PD184352], the “colon cancer growth in vivo” value is listed as “inhibit colon cancer growth”.

Tested on: not given
Test: not given
Conditions: phase I/II clinical trials in humans, literature [19]; cited from earlier work

For `O=C(NOCC1CC1)c1ccc(F)c(F)c1Nc1ccc(I)cc1Cl` [PD184352], the clinical efficacy is given as “insufficient efficacy”.

Reference: US20090082328A1, “Substituted phenylamino-benzene derivatives useful for treating hyper-proliferative disorders and diseases associated with mitogen extracellular kinase activity” (Bayer Schering Pharma Aktiengesellschaft, priority 2007, published 2009)
